Data published in US7893074B2, “2, 4-pyrimidinediamines useful in the treatment of neoplastic diseases, inflammatory and immune system disorders” (Novartis AG, priority 2003, dated 2011).
Like-named read-outs stand apart in the source and are kept apart here.

Experiments:
FAK = FAK (Mus musculus, UniProt P34152); assay: Phos IC50 (phosphorylation); type: cell-based
[1] = molecular target: Focal Adhesion Kinase (FAK) (Homo sapiens, UniProt Q05397); assay: FAK assay system (Focal Adhesion Kinase inhibition); type: biochemical
Sequence of Focal Adhesion Kinase (FAK) (Q05397 384-706): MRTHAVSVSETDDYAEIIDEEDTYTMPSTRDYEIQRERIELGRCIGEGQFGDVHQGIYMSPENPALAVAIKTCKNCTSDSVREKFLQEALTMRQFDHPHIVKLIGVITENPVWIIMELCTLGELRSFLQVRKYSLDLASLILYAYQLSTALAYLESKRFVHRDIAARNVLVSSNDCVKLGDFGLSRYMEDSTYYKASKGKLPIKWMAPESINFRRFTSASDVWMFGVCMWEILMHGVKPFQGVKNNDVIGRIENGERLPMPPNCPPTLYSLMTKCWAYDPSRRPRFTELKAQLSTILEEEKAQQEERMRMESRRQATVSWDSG

IGF-IR = IGF-IR (Homo sapiens, UniProt P08069); assay: Cellular Capture ELISA of IGF-I induced autophosphorylation of the IGF-IR; type: cell-based; details: read-out: IGF-1R IC50
Sequence of IGF-IR (P08069 31-1367): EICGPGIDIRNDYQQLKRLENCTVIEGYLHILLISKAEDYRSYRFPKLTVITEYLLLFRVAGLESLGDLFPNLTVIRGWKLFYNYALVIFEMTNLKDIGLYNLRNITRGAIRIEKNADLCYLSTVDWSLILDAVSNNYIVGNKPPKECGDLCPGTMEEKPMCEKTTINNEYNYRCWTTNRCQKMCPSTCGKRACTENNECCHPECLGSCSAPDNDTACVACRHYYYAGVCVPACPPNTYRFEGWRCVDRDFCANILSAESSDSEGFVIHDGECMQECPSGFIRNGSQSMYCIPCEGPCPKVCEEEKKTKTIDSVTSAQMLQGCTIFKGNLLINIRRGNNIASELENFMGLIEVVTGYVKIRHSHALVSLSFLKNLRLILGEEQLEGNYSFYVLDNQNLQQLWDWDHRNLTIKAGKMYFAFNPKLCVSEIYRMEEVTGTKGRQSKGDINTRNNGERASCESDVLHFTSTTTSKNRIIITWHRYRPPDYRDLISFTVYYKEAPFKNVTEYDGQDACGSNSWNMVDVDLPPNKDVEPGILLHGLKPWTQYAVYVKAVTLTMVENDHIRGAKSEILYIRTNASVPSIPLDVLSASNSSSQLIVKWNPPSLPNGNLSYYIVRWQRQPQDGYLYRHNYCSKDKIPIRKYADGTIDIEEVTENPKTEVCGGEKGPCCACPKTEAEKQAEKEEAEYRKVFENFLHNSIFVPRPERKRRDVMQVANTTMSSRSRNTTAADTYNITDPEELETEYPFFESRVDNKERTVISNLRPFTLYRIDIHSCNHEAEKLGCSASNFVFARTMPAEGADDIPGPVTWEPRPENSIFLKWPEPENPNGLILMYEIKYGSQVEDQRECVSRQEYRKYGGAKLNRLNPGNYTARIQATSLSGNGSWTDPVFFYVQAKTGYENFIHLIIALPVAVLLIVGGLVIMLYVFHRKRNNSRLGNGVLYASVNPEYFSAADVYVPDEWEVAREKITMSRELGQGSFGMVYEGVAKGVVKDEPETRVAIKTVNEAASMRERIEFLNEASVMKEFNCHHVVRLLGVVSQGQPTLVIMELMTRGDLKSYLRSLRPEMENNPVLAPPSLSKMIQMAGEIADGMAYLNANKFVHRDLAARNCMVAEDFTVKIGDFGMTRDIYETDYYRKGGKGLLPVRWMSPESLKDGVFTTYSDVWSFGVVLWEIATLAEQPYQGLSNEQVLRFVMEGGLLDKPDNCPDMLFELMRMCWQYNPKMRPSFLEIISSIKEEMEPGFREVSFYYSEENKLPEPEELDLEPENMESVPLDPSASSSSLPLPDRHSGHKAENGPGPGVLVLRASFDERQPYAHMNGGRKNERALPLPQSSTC
Protocol: In this assay the activity of the compounds of the invention against Insulin-like growth factor I (IGF-I) induced autophosphorylation of the IGF-IR is determined.

[2] = tested on: Mouse mammary carcinoma 4T1 cells; assay: Anchorage-independent tumor cell growth assay; type: cell-based
Protocol: Cells are cultured for 2 h and inhibitors are added at various concentrations in a final concentration of 0.1% DMSO. After 48 h, cell growth is assayed with the cell counting kit-8 (Wako Pure Chemical), which uses a water soluble tetrazolium salt WST8. Twenty μL of the reagent is added into each well and cells are further cultured for 2 h. The optical density is measured at 450 nm.

Sequence of FAK (P34152 2-1052): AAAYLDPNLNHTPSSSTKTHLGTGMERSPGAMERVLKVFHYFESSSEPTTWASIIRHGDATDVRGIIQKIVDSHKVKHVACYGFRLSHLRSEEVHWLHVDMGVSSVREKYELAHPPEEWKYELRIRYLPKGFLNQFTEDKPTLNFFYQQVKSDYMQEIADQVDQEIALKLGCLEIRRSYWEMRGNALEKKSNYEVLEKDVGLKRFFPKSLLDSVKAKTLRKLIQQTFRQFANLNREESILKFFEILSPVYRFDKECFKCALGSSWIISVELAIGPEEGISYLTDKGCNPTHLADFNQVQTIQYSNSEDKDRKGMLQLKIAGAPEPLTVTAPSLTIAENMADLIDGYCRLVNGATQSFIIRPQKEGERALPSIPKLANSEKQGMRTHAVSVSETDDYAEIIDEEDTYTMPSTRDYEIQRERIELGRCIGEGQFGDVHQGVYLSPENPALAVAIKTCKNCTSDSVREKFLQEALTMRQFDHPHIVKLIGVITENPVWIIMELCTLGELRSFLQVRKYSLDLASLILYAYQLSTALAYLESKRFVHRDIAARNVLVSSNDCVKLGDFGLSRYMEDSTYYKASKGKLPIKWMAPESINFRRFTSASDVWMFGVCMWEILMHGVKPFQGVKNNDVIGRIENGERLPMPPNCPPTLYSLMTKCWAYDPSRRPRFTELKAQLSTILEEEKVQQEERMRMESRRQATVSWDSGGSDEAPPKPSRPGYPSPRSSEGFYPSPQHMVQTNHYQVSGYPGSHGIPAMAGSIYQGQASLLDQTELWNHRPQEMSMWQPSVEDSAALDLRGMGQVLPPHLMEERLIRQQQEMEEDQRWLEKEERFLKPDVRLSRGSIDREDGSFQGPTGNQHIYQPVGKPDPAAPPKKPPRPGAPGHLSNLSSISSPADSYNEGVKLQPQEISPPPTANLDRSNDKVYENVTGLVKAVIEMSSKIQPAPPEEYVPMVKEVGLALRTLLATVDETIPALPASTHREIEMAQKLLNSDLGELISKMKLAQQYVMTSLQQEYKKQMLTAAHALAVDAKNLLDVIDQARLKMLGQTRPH

Row | IC50 (FAK) [nM] | IC50 ([1]; read-out: FAK IC50) [nM] | IC50 (IGF-IR) [nM] | IC50 ([2]; Mus musculus, 4T1) [nM] | IC50 [2] [nM] | Compound | IC50 ([1]; FAK IC50) [nM]
1 | 1000 | 7.2 | 240 | 490 |  | CC(C)NS(=O)(=O)c1ccccc1Nc1nc(Nc2ccc(N3CCOCC3)cc2F)ncc1Cl [Example 19-25] | 
2 | 100 | 3 | 380 | 50 |  | CNS(=O)(=O)c1ccccc1Nc1nc(Nc2ccc(N3CCNCC3)cc2OC)ncc1Cl [Example 20-7] | 
3 | 30 | 1.6 | 230 | 70 |  | COc1cc(OC2CCN(C)C2)ccc1Nc1ncc(Cl)c(Nc2ccccc2S(=O)(=O)NC(C)C)n1 (centres unmarked) [Example 19-20] | 
4 | 850 | 12 | 290 | 50 |  | CNS(=O)(=O)c1ccccc1Nc1nc(Nc2ccc(OC3CCN(C)CC3)cc2OC)ncc1Cl [Example 20-27] | 
5 | 200 | 2.9 | 2570 | 90 |  | COc1cc(N2CCN(C3CCN(C)CC3)CC2)ccc1Nc1ncc(Cl)c(Nc2ccccc2S(=O)(=O)C(C)C)n1 [Example 28-24] | 
6 | 50 | 4.4 | 290 | 350 |  | CCCS(=O)(=O)c1ccccc1Nc1nc(Nc2ccc(N3CCOCC3)cc2OC)ncc1Cl [Example 26-1] | 
7 | 50 | 5.9 | 120 | 370 |  | COc1cc(N2CCOCC2)ccc1Nc1ncc(Cl)c(Nc2ccccc2S(=O)(=O)CC(C)C)n1 [Example 32-2] | 
8 | 100 | 8 | 280 | 370 |  | CCCCS(=O)(=O)c1ccccc1Nc1nc(Nc2ccc(N3CCOCC3)cc2OC)ncc1Cl [Example 34-1] | 
9 | 200 | 1.6 | 140 | 340 |  | COc1cc(N2CCC(N3CCN(C)CC3)CC2)ccc1Nc1ncc(Cl)c(Nc2ccccc2S(=O)(=O)NC(C)C)n1 [Example 19-4] | 
10 | 80 | 1.9 | 3710 | 440 |  | COc1cc(N2CCN(CCO)CC2)ccc1Nc1ncc(Cl)c(Nc2ccccc2S(=O)(=O)C(C)C)n1 [Example 28-2] | 
11 |  | 3.12 | 100 |  |  | CNS(=O)(=O)c1ccccc1Nc1nc(Nc2cc(N3CCC(N(C)C)C3)ccc2OC)ncc1Cl (centres unmarked) [Example 20-20] | 
12 | 320 | 9 |  | 2000 |  | CCCS(=O)(=O)c1ccccc1Nc1nc(Nc2ccc(NCCN3CCOCC3)cc2OC)ncc1Cl [Example 26-16] | 
13 | 1000 | 16 |  | 570 |  | CCC(CC)NS(=O)(=O)c1ccccc1Nc1nc(Nc2ccc(N3CCOCC3)cc2OC)ncc1Cl [Example 23-6] | 
14 | 760 | 5.3 |  | 270 |  | CNS(=O)(=O)c1ccccc1Nc1nc(Nc2cc(OCC3CCN(C)CC3)ccc2OC)ncc1Cl [Example 20-26] | 
15 | 3000 | 26 |  | 680 |  | CNS(=O)(=O)c1ccccc1Nc1nc(Nc2cc(OCCN3CCOCC3)ccc2OC)ncc1Cl [Example 20-21] | 
16 | 200 | 6.6 |  | 570 |  | COc1cc(N2CCN3COCC[C@H]3C2)ccc1Nc1ncc(Cl)c(Nc2ccccc2S(=O)(=O)C(C)C)n1 [Example 28-26] | 
17 | > 10000 | 14 |  | 3000 |  | COc1cc(N2CCOCC2)ccc1Nc1ncc(Cl)c(Nc2ccccc2S(=O)(=O)c2ccccc2)n1 [Example 34-6] | 
18 | 300 | 1 |  | 1080 |  | COc1cc(N2CCC(NC(C)=O)C2)ccc1Nc1ncc(Cl)c(Nc2ccccc2S(=O)(=O)NC2CCC2)n1 (centres unmarked) [Example 24-3] | 
19 | 500 | 4.2 |  | 360 |  | CCS(=O)(=O)c1ccccc1Nc1nc(Nc2ccc(N3CCC(N4CCN(C)CC4)CC3)cc2OC)ncc1Cl [Example 27-9] | 
20 | 300 | 1.7 |  | 300 |  | CCC(C)NS(=O)(=O)c1ccccc1Nc1nc(Nc2ccc(OC3CCN(C)CC3)cc2OC)ncc1Cl (centres unmarked) [Example 21-3] | 
21 | 500 | 2.1 |  |  | 1520 | CCCS(=O)(=O)c1ccccc1Nc1nc(Nc2ccc(N3CCC(O)C3)cc2OC)ncc1Cl (centres unmarked) [Example 26-28] | 
22 | 700 | 6.4 |  | 710 |  | COc1cc(NC(C)(C)CO)ccc1Nc1ncc(Cl)c(Nc2ccccc2S(=O)(=O)NC(C)C)n1 [Example 19-23] | 
23 | 600 | 8.8 |  | 470 |  | COc1cc(N2CCC(N3CCN(C)CC3)CC2)ccc1Nc1ncc(Cl)c(Nc2ccccc2S(=O)(=O)C2CC2)n1 [Example 30-7] | 
24 | 600 | 9.3 |  | 750 |  | CCS(=O)(=O)c1ccccc1Nc1nc(Nc2ccc(N3CCC[C@@H](C(N)=O)C3)cc2OC)ncc1Cl [Example 27-8] | 
25 | 40 | 3.9 |  | 130 |  | COc1cc(N2CCC(N3CCNCC3)CC2)ccc1Nc1ncc(Cl)c(Nc2ccccc2S(=O)(=O)C(C)C)n1 [Example 28-25] | 
26 | 300 | 2.1 |  | 110 |  | COc1cc(OC2CCN(C)CC2)ccc1Nc1ncc(Cl)c(Nc2ccccc2S(=O)(=O)NC(C)C)n1 [Example 19-7] | 
27 | 40 | 2.3 |  | 220 |  | CCCS(=O)(=O)c1ccccc1Nc1nc(Nc2ccc(N3CCN(C(=O)C(C)C)CC3)cc2OC)ncc1Cl [Example 26-9] | 

More lines, now with the values behind:

Row | Compound | IC50 (FAK) [nM] | IC50 ([1]; read-out: FAK IC50) [nM] | IC50 (IGF-IR) [nM] | IC50 ([2]; Mus musculus, 4T1) [nM] | IC50 [2] [nM] | IC50 ([1]; FAK IC50) [nM]
28 | CNS(=O)(=O)c1ccccc1Nc1nc(Nc2ccc(N3CCOCC3)cc2OC)ncc1Br [Example 3-19, 2-[5-Bromo-2-(2-methoxy-4-morpholin-4-yl-phenylamino)-pyrimidin-4-ylamino]-N-methyl-benzenesulfonamide] | 350 | 6.8 | 100 | 800 |  | 
29 | CNS(=O)(=O)c1ccccc1Nc1nc(Nc2cccc3cn[nH]c23)ncc1Br [Example 3-13] |  |  | 740 | 600 |  | 58
30 | COc1cc(N2CCOCC2)ccc1Nc1ncc(Cl)c(Nc2ccccc2S(C)(=O)=O)n1 [Example 31-2] |  |  | 420 | 290 |  | 31
31 | CCOc1cc(N2CCOCC2)ccc1Nc1ncc(Br)c(Nc2ccccc2S(=O)(=O)NC)n1 [Example 3-58] | 80 | 21 | 140 | 300 |  | 
32 | CNS(=O)(=O)c1ccccc1Nc1nc(Nc2ccc(-n3ccnc3C)cc2OC)ncc1Br [Example 3-83] |  |  | 680 | 320 |  | 20
33 | COc1cc(OCC2CCCN(C)C2)ccc1Nc1ncc(Cl)c(Nc2ccccc2S(=O)(=O)NC(C)C)n1 (centres unmarked) [Example 19-3] |  |  | 640 | 90 |  | < 1
34 | CCCS(=O)(=O)c1ccccc1Nc1nc(Nc2ccc(N3CCC(C(N)=O)CC3)cc2OC)ncc1Cl [Example 26-5] |  |  | 1500 | 230 |  | 2.1
35 | COc1cc(N2CCC(N(C)C(C)=O)C2)ccc1Nc1ncc(Cl)c(Nc2ccccc2S(=O)(=O)NC(C)C)n1 (centres unmarked) [Example 19-14] |  |  | 440 | 1130 |  | 2.6
36 | CCNC1CCN(c2ccc(Nc3ncc(Cl)c(Nc4ccccc4S(=O)(=O)NC(C)C)n3)c(OC)c2)C1 (centres unmarked) [Example 19-2] |  |  | 910 | 380 |  | 1.6
37 | CNS(=O)(=O)c1ccccc1Nc1nc(Nc2cc(F)ccc2F)ncc1Br [Example 3-77] | > 10000 | 65 |  | 3000 |  | 
38 | CNS(=O)(=O)c1ccccc1Nc1nc(Nc2ccc(N3CCC(C#N)CC3)cc2OC)ncc1Br [Example 3-40] | > 10000 | 9 |  | 900 |  | 
39 | CNC(=O)c1cc(N2CCCC2)ccc1Nc1nc(Nc2ccc(OC3CCN(C)CC3)cc2OC)ncc1Cl [Example 15-2] | > 10000 | 21 |  | 660 |  | 
40 | CNS(=O)(=O)c1ccccc1Nc1nc(Nc2cc(-c3ccncc3)ccc2C)ncc1Br [Example 3-54] | 10 | 0.9 | < 80 |  |  | 
41 | CNC(=O)c1ccccc1Nc1nc(Nc2ccc(N3CCC(OCCOC)CC3)cc2OC)ncc1Cl [Example 7-10] | 1000 | 6.6 |  | 980 |  | 
42 | CNS(=O)(=O)c1ccccc1Nc1nc(Nc2ccc(N(CCOC)CCOC)cc2OC)ncc1Br [Example 3-42] | 350 | 29 |  | 300 |  | 
43 | CNC(=O)c1ccccc1Nc1nc(Nc2ccc(N3CCC(O)CC3)cc2OC)ncc1Cl [Example 7-8] | 800 | 8.7 |  | 1000 |  | 
44 | CNS(=O)(=O)c1ccccc1Nc1nc(Nc2ccccc2OC)ncc1Br [Example 3-6] | 110 | 13 |  | 2000 |  | 
45 | CNS(=O)(=O)c1ccccc1Nc1nc(Nc2cc(C)cc(C)c2C)ncc1Br [Example 3-16] | 1100 | 48 |  | 3000 |  | 
46 | CNS(=O)(=O)c1ccccc1Nc1nc(Nc2cc(C(=O)N3CCNCC3)ccc2C)ncc1Br [Example 3-24] | 3500 | 64 |  | 5000 |  | 
47 | CNC(=O)c1c(C)cccc1Nc1nc(Nc2ccc(OC3CCN(C)CC3)cc2OC)ncc1Cl [Example 10-1] | 1000 | 39 |  | 440 |  | 
48 | CNS(=O)(=O)c1ccccc1Nc1nc(Nc2cc(N3CCCCC3)ccc2C)ncc1Br [Example 3-26] | 790 | 50 |  | 2000 |  | 
49 | CNS(=O)(=O)c1ccccc1Nc1nc(Nc2cc(F)ccc2Cl)ncc1Br [Example 3-38] | 1700 | 64 |  | 3800 |  | 
